# Reference: the supplement of paper PMC10307832
# Assays:
# Experiment in all cases: relative viability (nuclei count vs DMSO), 5 days (fraction); higher = more cells survive
# Selumetinib + Lapatinib = compound: Cn1cnc2c(F)c(Nc3ccc(Br)cc3Cl)c(C(=O)NOCCO)cc21 [Selumetinib] + CS(=O)(=O)CCNCc1ccc(-c2ccc3ncnc(Nc4ccc(OCc5cccc(F)c5)c(Cl)c4)c3c2)o1 [Lapatinib] (partner 2 µM)
# Method in brief: (§1)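 The day after seeding in 1536-well plates, lung cancer cell lines were treated by pin tool with a single drug, or with a fixed anchor-drug dose together with five library-drug doses (not always all listed) in √10 steps. After 5 days, a combined fix-and-stain solution (final 0.05% Triton X-100, 1% formaldehyde, 1 ug/ml Hoechst) was added. Nuclei counted on 4× images gave relative viability as treated counts over vehicle counts, reported as the median of duplicate plates.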
# Venetoclax + Phenformin = compound: CC1(C)CCC(CN2CCN(c3ccc(C(=O)NS(=O)(=O)c4ccc(NCC5CCOCC5)c([N+](=O)[O-])c4)c(Oc4cnc5[nH]ccc5c4)c3)CC2)=C(c2ccc(Cl)cc2)C1 [Venetoclax] + N=C(N)NC(=N)NCCc1ccccc1 [Phenformin] (partner 250 µM)
# Method in brief: as §1
# Venetoclax + Vorinostat = compound: CC1(C)CCC(CN2CCN(c3ccc(C(=O)NS(=O)(=O)c4ccc(NCC5CCOCC5)c([N+](=O)[O-])c4)c(Oc4cnc5[nH]ccc5c4)c3)CC2)=C(c2ccc(Cl)cc2)C1 [Venetoclax] + O=C(CCCCCCC(=O)Nc1ccccc1)NO [Vorinostat] (partner 1 µM)
# Method in brief: as §1
# Selumetinib + Vorinostat = compound: Cn1cnc2c(F)c(Nc3ccc(Br)cc3Cl)c(C(=O)NOCCO)cc21 [Selumetinib] + O=C(CCCCCCC(=O)Nc1ccccc1)NO [Vorinostat] (partner 1 µM)
# Method in brief: as §1
Cell Line,relative viability (Selumetinib + Lapatinib; first compound 0.02 µM),relative viability (Selumetinib + Lapatinib; first compound 0.06325 µM),relative viability (Selumetinib + Lapatinib; first compound 0.2 µM),relative viability (Selumetinib + Lapatinib; first compound 0.6325 µM),relative viability (Venetoclax + Phenformin; first compound 0.01 µM),relative viability (Venetoclax + Phenformin; first compound 0.03162 µM),relative viability (Venetoclax + Phenformin; first compound 0.1 µM),relative viability (Venetoclax + Phenformin; first compound 0.3162 µM),relative viability (Venetoclax + Phenformin; first compound 1 µM),relative viability (Venetoclax + Vorinostat; first compound 0.01 µM),relative viability (Venetoclax + Vorinostat; first compound 0.03162 µM),relative viability (Venetoclax + Vorinostat; first compound 0.1 µM),relative viability (Venetoclax + Vorinostat; first compound 0.3162 µM),relative viability (Venetoclax + Vorinostat; first compound 1 µM),relative viability (Selumetinib + Vorinostat; first compound 0.02 µM),relative viability (Selumetinib + Vorinostat; first compound 0.06325 µM),relative viability (Selumetinib + Vorinostat; first compound 0.2 µM),relative viability (Selumetinib + Vorinostat; first compound 0.6325 µM)
HCC-827,0.175,0.182,0.187,0.18,0.473,0.497,0.344,0.406,0.394,0.848,0.958,0.83,0.892,0.755,1,0.906,0.999,0.957
LC-2-ad,0.91,0.879,0.736,0.842,0.595,0.606,0.551,0.616,0.565,0.721,0.729,0.641,0.69,0.686,0.653,0.723,0.665,0.67
NCI-H460,0.921,0.709,0.555,0.399,0.424,0.55,0.478,0.497,0.461,0.602,0.684,0.653,0.739,0.6,0.48,0.492,0.428,0.228
NCI-H441,,,,,0.83,0.706,0.787,0.805,0.868,0.78,0.762,1.02,0.868,0.743,0.843,0.868,0.783,0.778
LCLC-97TM1,1.05,0.985,0.86,0.481,0.463,0.494,0.461,0.449,0.385,0.453,0.892,0.443,0.635,0.667,0.925,0.714,0.661,0.437
COR-L23,1.18,1.1,0.98,1,0.42,0.442,0.413,0.43,0.423,0.428,0.439,0.39,0.433,0.392,0.554,0.537,0.485,0.456
NCI-H2228,1.01,0.765,0.852,0.695,0.366,0.322,0.234,0.422,0.408,0.915,0.623,0.799,0.461,0.436,0.744,0.627,0.63,0.619
LCLC-103H,,,,,0.335,0.298,0.352,0.313,0.333,0.866,0.92,0.648,0.825,0.737,0.811,0.768,0.712,0.691
NCI-H1993,0.931,0.762,0.887,0.706,0.603,0.494,0.473,0.48,0.528,0.747,1,0.714,0.728,0.615,0.85,0.6,0.597,0.612
